Results published in US20230118497A1, “PYRAZOLE-CONTAINING POLYCYCLIC DERIVATIVE INHIBITOR, PREPARATION METHOD THEREFOR AND APPLICATION THEREOF” (Shanghai Hansoh Biomedical Co., Ltd., priority 2019, published 2023).
Like-named read-outs stand apart in the source and are kept apart here.

Legend:
[1] = Metabolic stability in liver microsome (human); assay type: in vitro ADME; conditions: human liver microsome 0.5 mg/mL, compound 1 μM; for t1/2 / half-life at 1 μM: NADPH/UDPGA; for half-life at 1 μM: liver microsomes
Procedure: Test Example 5. Assay of Metabolic Stability in Liver Microsome
The objective of the experiment is to determine the stability of the compounds of the Examples in liver microsome of mouse, rat, dog and human.
Formulation of the working solution of the compound: The stock solution of the compound was added to phosphate buffer, and the final concentration was 20 μM.
Liver microsome was diluted with 100 mM phosphate buffer to obtain a final concentration of 0.625 mg/mL.
NADPH (reduced nicotinamide adenine dinucleotide phosphate) and UDPGA (uridine diphosphate glucuronic acid) were weighed respectively, followed by addition of 100 mM phosphate buffer. The final concentrations were 20 mM.
1 mg of Alamethicin was weighed, to which 200 μL of DMSO was added to obtain a 5 mg/mL solution. The solution was diluted with phosphate buffer to obtain a final concentration of 50 μg/mL.
2.5 Formulation of the reaction stop solution Stop solution: Cold acetonitrile containing 100 ng/mL labetalol hydrochloride and 400 ng/mL tolbutamide as internal standards.
400 μL of the prepared liver microsome, 25 μL of the working solution of the compound and 25 μL of Alamethicin were added to a 96-well plate successively, which was then pre-incubated at 37° C. for 10 min. 50 μL of the prepared NADPH/UDPGA was added to initiate the reaction, and the plate was incubated at 37° C. The total volume of the reaction system was 500 μL. The final contents of the components were as follows: […]

[2] = target: T1, CYP450 enzyme isoform 1A2 (Homo sapiens, UniProt P05177); experiment: CYP enzyme single-point inhibition assay, 1A2; assay type: in vitro ADME; conditions: human liver microsome, single-point method
T1 construct: single-point method using human liver microsome incubation system; from tissue; host or cells: human liver microsomes
T1 sequence (P05177 1-516): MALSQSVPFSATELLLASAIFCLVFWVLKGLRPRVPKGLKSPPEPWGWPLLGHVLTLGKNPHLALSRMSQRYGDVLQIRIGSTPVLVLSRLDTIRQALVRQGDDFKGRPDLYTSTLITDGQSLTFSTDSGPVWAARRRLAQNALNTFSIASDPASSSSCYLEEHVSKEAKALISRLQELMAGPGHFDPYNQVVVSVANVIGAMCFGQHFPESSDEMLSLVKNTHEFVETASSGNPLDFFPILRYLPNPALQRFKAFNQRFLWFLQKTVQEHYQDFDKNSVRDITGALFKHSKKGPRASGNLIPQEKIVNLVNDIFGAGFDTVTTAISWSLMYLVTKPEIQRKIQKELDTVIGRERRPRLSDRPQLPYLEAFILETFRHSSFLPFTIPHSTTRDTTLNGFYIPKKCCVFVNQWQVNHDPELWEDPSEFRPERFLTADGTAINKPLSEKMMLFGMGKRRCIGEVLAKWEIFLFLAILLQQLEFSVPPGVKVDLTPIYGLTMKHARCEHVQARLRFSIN
Procedure: (§1) Test Example 7. CYP Enzyme Single-Point Inhibition Assay
(§2) The inhibition of the compounds on CYP450 enzyme isoformwas rapidly predicted by single-point method using human liver microsome incubation system.
(§3) 2.5 mM NADPH: 4.165 mg of NADPH (reduced nicotinamide adenine dinucleotide phosphate) was weighed, followed by addition of 100 mM phosphate buffer to 2 mL. 0.25 mg/mL microsome solution: 4 mL of 100 mM phosphate buffer was added to 50 μL of 20 mg/mL microsome solution and mixed well.
(§4) The test compound of the Example was weighed, diluted to 10 mM with DMSO and then to 100 μM with 100 mM phosphate buffer.
(§5) 1. 40 μL of liver microsome, 10 μL of substrate and 10 μL of the test compound were added to a 96-well plate and pre-incubated for 3 min.
(§6) 2. 40 μL of NADPH was added.
(§7) 3. 300 μL of acetonitrile stop solution containing internal standard was added at 20 min.
(§8) 4. The sample was centrifuged and injected.

[3] = target: T2, CYP450 enzyme isoform 3A4 (Homo sapiens, UniProt P08684); experiment: CYP enzyme single-point inhibition assay, 3A4; assay type: in vitro ADME; conditions: human liver microsome, single-point method
T2 construct: single-point method using human liver microsome incubation system; from tissue; host or cells: human liver microsomes
Procedure: as §1, §2, §3, §4, §5, §6, §7, §8

[4] = system: BALB/c mice; experiment: Taste sensitivity assay in BALB/c mice (quinine solution intake); assay type: in vivo; conditions: 30 mpk; for Solution consumption of single mouse, Quinine solution: 3 mmol/L quinine hydrochloride, 30 min; for Dysgeusia rate: quinine solution vs solvent groups (20% HP-B-CD)
Procedure: Test Example 9. Taste Sensitivity Assay in BALB/c Mice
In this assay, compounds with less toxic and side effects on animal taste were screened by quinine bitter solution experiment.
BALB/c mice, 6 to 8 weeks old, ♂, purchased from Shanghai SIPPR-BK Laboratory Animal Co., Ltd.
BALB/c mice were randomly grouped according to body weight, and were deprived of water 12 to 16 hours before administration with no fasting.
An appropriate amount of quinine monohydrochloride dihydrate was weighed and formulated into an aqueous solution quinine hydrochloride (concentration: 3 mmol/L) with ultrapure water for later use.
An appropriate amount of the test compound was weighed and formulated into the target concentration with the corresponding solvent according to the experimental design for later use.
Administration and fasting: On the day of the experiment, the animals were weighed and fasted, bedding was changed, and the compounds were administered according to the experimental design.
1. The corresponding clean mouse drinking bottle was rinsed 2 to 3 times with ultrapure water and the formulated 3 mmol/L aqueous solution of quinine hydrochloriderespectively. The bottle was filled and weighed, and the weight was recorded as Wi0.
2. According to the experimental design, a certain period after administration, the filled bottle was gently placed in the corresponding mouse cage, and the timing was started. After 30 min, the bottle was gently taken out and weighed, and the weight was recorded as Wi30.
3. Calculation of solution consumption of animals in each group: ΔWW(g)=[…]; calculation of solution consumption of single mouse: ΔpWW(g)=ΔWW/N, N is the number of animals in each group.
4. Dysgeusia rate=(ΔpWW of the group in which the drinking water was the aqueous solution of quinine hydrochlorideand the test compound was administered at the same time −ΔpWW of the group in which the drinking water was aqueous solution of quinine hydrochlorideand the solvent control was administered at the same time)/(ΔpWW of the group in which the drinking water was ultrapure water and the solvent control was administered at the same time −ΔpWW of the group in which the drinking water was aqueous solution of quinine hydrochloride and the solvent control was administered at the same time)×100%. Data processing was performed with software such as Excel.

T2 sequence (P08684 whole entry, canonical isoform): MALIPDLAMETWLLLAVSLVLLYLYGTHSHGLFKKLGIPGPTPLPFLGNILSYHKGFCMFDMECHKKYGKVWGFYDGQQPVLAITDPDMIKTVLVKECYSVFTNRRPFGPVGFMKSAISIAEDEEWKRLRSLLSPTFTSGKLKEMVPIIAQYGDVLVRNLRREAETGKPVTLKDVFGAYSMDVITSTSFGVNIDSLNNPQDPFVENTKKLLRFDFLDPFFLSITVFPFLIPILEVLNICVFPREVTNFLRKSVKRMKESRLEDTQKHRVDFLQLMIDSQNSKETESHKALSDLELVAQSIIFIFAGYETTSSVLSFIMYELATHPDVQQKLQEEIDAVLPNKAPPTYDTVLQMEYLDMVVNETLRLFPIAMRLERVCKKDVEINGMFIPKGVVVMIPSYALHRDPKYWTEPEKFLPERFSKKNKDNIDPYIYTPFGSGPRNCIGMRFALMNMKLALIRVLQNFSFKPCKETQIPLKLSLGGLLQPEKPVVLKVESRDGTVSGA

With `CCc1cc2n(CC(=O)Nc3ccc(F)cn3)c(=O)c3ccc(C(F)(F)F)nc3n2n1` [Example 34, 2-(2-Ethyl-5-oxo-8-(trifluoromethyl)pyrazolo[1,5-a]pyrido[3,2-e]pyrimidin-4(5H)-yl)-N-(5-fluoropyridin-2-yl)acetamide] the “Remaining (%, 60 min)” value [1] was 113.9%, the t1/2 [1] was “∞” and the IC50 [2] was 24.9 µM. For the same compound, the IC50 ([3]; 3A4-M, read-out: 3A4-M IC50) was > 100 µM and the IC50 ([3]; 3A4-T, read-out: 3A4-T IC50) was > 100 µM.
With `O=C(Cn1c(=O)c2ccc(C(F)(F)F)nc2n2nc(Br)cc12)Nc1ccc(F)cn1` [Example 61-A, 2-(2-bromo-5-oxo-8-(trifluoromethyl)pyrazolo[1,5-a]pyrido[3,2-e]pyrimidin-4(5H)-yl)-N-(5-fluoropyridin-2-yl)acetamide] the “Remaining (%, 60 min)” value [1] was 100.4%, the t1/2 [1] was “∞” and the IC50 [2] was 72.1 µM. The IC50 ([3]; 3A4-M, read-out: 3A4-M IC50) was > 100 µM, the IC50 ([3]; 3A4-T, read-out: 3A4-T IC50) was > 100 µM and the “Solution consumption of single mouse, Quinine solution” value (from here on “Solution consumption of single mouse”) [4] was 0.048 g. It also gave a Dysgeusia rate [4] of −3.77%.
For `N#Cc1cc2n(CC(=O)Nc3ccc(F)cn3)c(=O)c3ccc(C(F)(F)F)nc3n2n1` [Example 68, 2-(2-Cyano-5-oxo-8-(trifluoromethyl)pyrazolo[1,5-a]pyrido[3,2-e]pyrimidin-4(5H)-yl)-N-(5-fluoropyridin-2-yl)acetamide], the “Remaining (%, 60 min)” value [1] was 101.2%, the half-life at 1 μM [1] was 23.4 h and the IC50 [2] was > 100 µM. For the same compound, the IC50 ([3]; 3A4-M, read-out: 3A4-M IC50) was > 100 µM, the IC50 ([3]; 3A4-T, read-out: 3A4-T IC50) was > 100 µM and the “Solution consumption of single mouse” value [4] was 0.056 g. It also gave a Dysgeusia rate [4] of −2.26%.
With `O=C(Cn1c(=O)c2ccc(C(F)(F)F)nc2n2nccc12)Nc1ccc(F)cn1` [Example 78, N-(5-Fluoropyridin-2-yl)-2-(5-oxo-8-(trifluoromethyl)pyrazolo[1,5-a]pyrido[3,2-e]pyrimidin-4(5H)-yl)acetamide] the “Remaining (%, 60 min)” value [1] was 97.5%, the half-life at 1 μM [1] was 14.7 h and the IC50 [2] was > 100 µM. The IC50 ([3]; 3A4-M, read-out: 3A4-M IC50) was > 100 µM, the IC50 ([3]; 3A4-T, read-out: 3A4-T IC50) was > 100 µM and the “Solution consumption of single mouse” value [4] was 0.016 g. The Dysgeusia rate [4] was −9.81%.
